Source: patent US20240425500A1 (priority 2021, published 2024)

Columns and labels:
Plasmopara viticola = assay: whole plant or invertebrate; format: in vivo; settings: foliar, read-out: control of Plasmopara viticola compared to untreated control
Phytophthora infestans = assay: whole plant or invertebrate; format: in vivo; settings: in Solanum lycopersicum, foliar, read-out: control of Phytophthora infestans compared to untreated control
Pythium ultimum = Pythium ultimum / liquid culture (seedling damping off); format: cell-based; settings: Globisporangium ultimum, liquid culture in PDB, 24 °C, 2-3 days after application, read-out: control of Pythium ultimum (inhibition of growth, photometric) compared to untreated control
Outline: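 Mycelia fragments and oospores from fresh liquid culture mixed into potato dextrose broth and added to compound in DMSO. Incubated at 24° C.; growth inhibition read photometrically 2–3 days after application.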

COC(=O)Nc1ccc(-c2cnc3ccc(C(=O)N(C)c4ccc(C#N)cc4)cn23)cn1 [Compound 15, methyl N-[5-[6-[(4-cyanophenyl)-methyl-carbamoyl]imidazo[1,2-a]pyridin-3-yl]-2-pyridyl]carbamate]
≥ 80%: pest or weed control at 200 ppm (Plasmopara viticola) | pest or weed control at 200 ppm (Phytophthora infestans) | inhibition at 20 ppm (Pythium ultimum)

COC(=O)Nc1ccc(-c2cnc3ccc(C(=O)N(C)c4ccc(F)c(Cl)c4)cn23)cn1 [Compound 113, methyl N-[5-[6-[(3-chloro-4-fluoro-phenyl)-methyl-carbamoyl]imidazo[1,2-a]pyridin-3-yl]-2-pyridyl]carbamate]
≥ 80%: pest or weed control at 200 ppm (Plasmopara viticola) | pest or weed control at 200 ppm (Phytophthora infestans) | inhibition at 20 ppm (Pythium ultimum)

COC(=O)Nc1ccc(-c2cnc3ccc(C(=O)N(C)c4ccc(F)c(O)c4)cn23)cn1 [Compound 96, methyl N-[5-[6-[(4-fluoro-3-hydroxy-phenyl)-methyl-carbamoyl]imidazo[1,2-a]pyridin-3-yl]-2-pyridyl]carbamate]
≥ 80%: pest or weed control at 200 ppm (Plasmopara viticola) | pest or weed control at 200 ppm (Phytophthora infestans) | inhibition at 20 ppm (Pythium ultimum)

COC(=O)Nc1ccc(-c2cnc3ccc(C(=O)N(C)c4cccc(I)c4)cn23)cn1 [Compound 73, methyl N-[5-[6-[(3-iodophenyl)-methyl-carbamoyl]imidazo[1,2-a]pyridin-3-yl]-2-pyridyl]carbamate]
≥ 80%: pest or weed control at 200 ppm (Plasmopara viticola) | pest or weed control at 200 ppm (Phytophthora infestans) | inhibition at 20 ppm (Pythium ultimum)

COC(=O)Nc1ccc(-c2cnc3ccc(C(=O)N(C)c4ccc(F)c(C)c4)cn23)cn1 [Compound 48, methyl N-[5-[6-[(4-fluoro-3-methyl-phenyl)-methyl-carbamoyl]imidazo[1,2-a]pyridin-3-yl]-2-pyridyl]carbamate]
≥ 80%: pest or weed control at 200 ppm (Plasmopara viticola) | pest or weed control at 200 ppm (Phytophthora infestans) | inhibition at 20 ppm (Pythium ultimum)

COC(=O)Nc1ccc(-c2cnc3c(OC)cc(C(=O)N(C)c4ccc(Cl)cc4)cn23)cc1 [Compound 37, methyl N-[4-[6-[(4-chlorophenyl)-methyl-carbamoyl]-8-methoxy-imidazo[1,2-a]pyridin-3-yl]phenyl]carbamate]
≥ 80%: pest or weed control at 200 ppm (Plasmopara viticola) | pest or weed control at 200 ppm (Phytophthora infestans) | inhibition at 20 ppm (Pythium ultimum)

CCN(C(=O)c1ccc2ncc(-c3ccc(NC(=O)OC)cc3)n2c1)c1ccc(Cl)cc1 [Compound 32, methyl N-[4-[6-[(4-chlorophenyl)-ethyl-carbamoyl]imidazo[1,2-a]pyridin-3-yl]phenyl]carbamate]
≥ 80%: pest or weed control at 200 ppm (Plasmopara viticola) | pest or weed control at 200 ppm (Phytophthora infestans) | inhibition at 20 ppm (Pythium ultimum)

COC(=O)Nc1ccc(-c2cnc3ccc(C(=O)N(C)c4ccc(Cl)c(OC)c4)cn23)cn1 [Compound 75, methyl N-[5-[6-[(4-chloro-3-methoxy-phenyl)-methyl-carbamoyl]imidazo[1,2-a]pyridin-3-yl]-2-pyridyl]carbamate]
≥ 80%: pest or weed control at 200 ppm (Plasmopara viticola) | pest or weed control at 200 ppm (Phytophthora infestans) | inhibition at 20 ppm (Pythium ultimum)

CC(=O)Nc1ccc(-c2cnc3ccc(C(=O)N(C)c4ccc(Cl)cc4)cn23)cn1 [Compound 3, 3-(6-acetamido-3-pyridyl)-N-(4-chlorophenyl)-N-methyl-imidazo [1,2-a]pyridine-6-carboxamide]
≥ 80%: pest or weed control at 200 ppm (Plasmopara viticola) | pest or weed control at 200 ppm (Phytophthora infestans) | inhibition at 20 ppm (Pythium ultimum)

COC(=O)Nc1ccc(-c2cnc3cc(C)c(C(=O)N(C)c4ccc(F)cc4)cn23)cn1 [Compound 86, methyl N-[5-[6-[(4-fluorophenyl)-methyl-carbamoyl]-7-methyl-imidazo[1,2-a]pyridin-3-yl]-2-pyridyl]carbamate]
≥ 80%: pest or weed control at 200 ppm (Plasmopara viticola) | pest or weed control at 200 ppm (Phytophthora infestans) | inhibition at 20 ppm (Pythium ultimum)

COC(=O)Nc1ccc(-c2cnc3ccc(C(=O)N(C)c4ccc(F)c(OC)c4)cn23)cn1 [Compound 45, methyl N-[5-[6-[(4-fluoro-3-methoxy-phenyl)-methyl-carbamoyl]imidazo[1,2-a]pyridin-3-yl]-2-pyridyl]carbamate]
≥ 80%: pest or weed control at 200 ppm (Plasmopara viticola) | pest or weed control at 200 ppm (Phytophthora infestans) | inhibition at 20 ppm (Pythium ultimum)

COC(=O)Nc1ccc(-c2cnc3ccc(C(=O)N(c4ccc(F)cc4)C4CC4)cn23)cn1 [Compound 110, methyl N-[5-[6-[cyclopropyl-(4-fluorophenyl)carbamoyl]imidazo [1,2-a]pyridin-3-yl]-2-pyridyl]carbamate]
≥ 80%: pest or weed control at 200 ppm (Plasmopara viticola) | pest or weed control at 200 ppm (Phytophthora infestans) | inhibition at 20 ppm (Pythium ultimum)

COC(=O)Nc1ccc(-c2cnc3ccc(C(=O)N(C)c4ccc(F)c(F)c4)cn23)cn1 [Compound 50, methyl N-[5-[6-[(3,4-difluorophenyl)-methyl-carbamoyl]imidazo[1,2-a]pyridin-3-yl]-2-pyridyl]carbamate]
≥ 80%: pest or weed control at 200 ppm (Plasmopara viticola) | pest or weed control at 200 ppm (Phytophthora infestans) | inhibition at 20 ppm (Pythium ultimum)

CCN(C(=O)c1ccc2ncc(-c3ccc(NC(=O)OC)nc3)n2c1)c1ccc(F)c(F)c1 [Compound 105, methyl N-[5-[6-[(3,4-difluorophenyl)-ethyl-carbamoyl]imidazo[1,2-a]pyridin-3-yl]-2-pyridyl]carbamate]
≥ 80%: pest or weed control at 200 ppm (Plasmopara viticola) | pest or weed control at 200 ppm (Phytophthora infestans) | inhibition at 20 ppm (Pythium ultimum)

COCCN(C(=O)c1ccc2ncc(-c3ccc(NC(=O)OC)nc3)n2c1)c1ccc(F)cc1 [Compound 76, methyl N-[5-[6-[(4-fluorophenyl)-(2-methoxyethyl)carbamoyl]imidazo[1,2-a]pyridin-3-yl]-2-pyridyl]carbamate]
≥ 80%: pest or weed control at 200 ppm (Plasmopara viticola) | pest or weed control at 200 ppm (Phytophthora infestans) | inhibition at 20 ppm (Pythium ultimum)

CCN(C(=O)c1ccc2ncc(-c3ccc(NC(=O)OC)nc3)n2c1)c1ccc(F)c(C)c1 [Compound 116, methyl N-[5-[6-[ethyl-(4-fluoro-3-methyl-phenyl)carbamoyl]imidazo [1,2-a]pyridin-3-yl]-2-pyridyl]carbamate]
≥ 80%: pest or weed control at 200 ppm (Plasmopara viticola) | pest or weed control at 200 ppm (Phytophthora infestans) | inhibition at 20 ppm (Pythium ultimum)

COC(=O)Nc1ccc(-c2cnc3ccc(C(=O)N(CCC#N)c4cccc(OC)c4)cn23)cn1 [Compound 149, methyl N-[5-[6-[2-cyanoethyl-(3-methoxyphenyl)carbamoyl]imidazo[1,2-a]pyridin-3-yl]-2-pyridyl]carbamate]
≥ 80%: pest or weed control at 200 ppm (Plasmopara viticola) | pest or weed control at 200 ppm (Phytophthora infestans) | inhibition at 20 ppm (Pythium ultimum)
